Results as given in ChEMBL document CHEMBL1154277, “Discovery of N-substituted pyridinones as potent and selective inhibitors of p38 kinase” (Bioorg Med Chem Lett, 2009).

Legend:
[1] = target: Casein kinase II subunit alpha' (Homo sapiens) (UniProt P19784); experiment: Inhibition of CK2alpha2 at 10 uM
[2] = target: G protein-coupled receptor kinase 4 (Homo sapiens) (UniProt P32298); experiment: Inhibition of GRK4 at 10 uM
[3] = target: MAP kinase-activated protein kinase 2 (Homo sapiens) (UniProt P49137); experiment: Inhibition of MAPKAPK2 at 10 uM
[4] = target: Tyrosine-protein kinase JAK2 (Homo sapiens) (UniProt O60674); experiment: Inhibition of JAK2 at 10 uM
[5] = target: Serine/threonine-protein kinase SIK2 (Homo sapiens) (UniProt Q9H0K1); experiment: Inhibition of SNF1LK2 at 10 uM
[6] = target: cGMP-dependent protein kinase 1 (Homo sapiens) (UniProt Q13976); experiment: Inhibition of PRKG1 at 10 uM
[7] = target: Receptor tyrosine-protein kinase erbB-4 (Homo sapiens) (UniProt Q15303); experiment: Inhibition of ERBB4 at 10 uM
[8] = target: Dual specificity tyrosine-phosphorylation-regulated kinase 4 (Homo sapiens) (UniProt Q9NR20); experiment: Inhibition of DYRK4 at 10 uM
[9] = target: NT-3 growth factor receptor (Homo sapiens) (UniProt Q16288); experiment: Inhibition of TRKC at 10 uM
[10] = system: Epidermal growth factor receptor (Homo sapiens), P00533 [L858R]; experiment: Inhibition of EGFR L858R (mutant) at 10 uM; type: protein assay
[11] = target: Serine/threonine-protein kinase D3 (Homo sapiens) (UniProt O94806); experiment: Inhibition of PKD3 at 10 uM
[12] = target: Serine/threonine-protein kinase MARK1 (Homo sapiens) (UniProt Q9P0L2); experiment: Inhibition of MARK1 at 10 uM
[13] = target: Serine/threonine-protein kinase Sgk3 (Homo sapiens) (UniProt Q96BR1); experiment: Inhibition of SGK3 at 10 uM
[14] = target: Rho-associated protein kinase 1 (Homo sapiens) (UniProt Q13464); experiment: Inhibition of ROCK1 at 10 uM
[15] = target: Serine/threonine-protein kinase PAK 5 (Homo sapiens) (UniProt Q9P286); experiment: Inhibition of PAK7 at 10 uM
[16] = target: Interleukin-1 receptor-associated kinase 1 (Homo sapiens) (UniProt P51617); experiment: Inhibition of IRAK1 at 10 uM
[17] = target: Tyrosine-protein kinase HCK (Homo sapiens) (UniProt P08631); experiment: Inhibition of HCK at 10 uM
[18] = target: RAC-alpha serine/threonine-protein kinase (Homo sapiens) (UniProt P31749); experiment: Inhibition of AKT1 at 10 uM
[19] = target: SRSF protein kinase 2 (Homo sapiens) (UniProt P78362); experiment: Inhibition of SRPK2 at 10 uM
[20] = target: Dual specificity tyrosine-phosphorylation-regulated kinase 1A (Homo sapiens) (UniProt Q13627); experiment: Inhibition of DYRK1A at 10 uM
[21] = target: Calcium/calmodulin-dependent protein kinase type 1 (Homo sapiens) (UniProt Q14012); experiment: Inhibition of CAMK1 at 10 uM
[22] = target: Vascular endothelial growth factor receptor 3 (Homo sapiens) (UniProt P35916); experiment: Inhibition of FLT4 at 10 uM
[23] = target: Tyrosine-protein kinase receptor TYRO3 (Homo sapiens) (UniProt Q06418); experiment: Inhibition of RSE at 10 uM
[24] = target: Inhibitor of nuclear factor kappa-B kinase subunit epsilon (Homo sapiens) (UniProt Q14164); experiment: Inhibition of IKKepsilon at 10 uM
[25] = target: Protein kinase C delta type (Homo sapiens) (UniProt Q05655); experiment: Inhibition of PKCdelta at 10 uM
[26] = system: Leucine-rich repeat serine/threonine-protein kinase 2 (Homo sapiens), Q5S007 [G2019S]; experiment: Inhibition of LRRK2 G2019S mutant at 10 uM
[27] = Inhibition of KHS1 at 10 uM
[28] = target: Dual specificity protein kinase CLK1 (Homo sapiens) (UniProt P49759); experiment: Inhibition of CLK1 at 10 uM
[29] = target: Serine/threonine-protein kinase TAO1 (Homo sapiens) (UniProt Q7L7X3); experiment: Inhibition of TAO1 at 10 uM
[30] = target: Macrophage colony-stimulating factor 1 receptor (Homo sapiens) (UniProt P07333); experiment: Inhibition of CSF1R at 10 uM
[31] = target: Megakaryocyte-associated tyrosine-protein kinase (Homo sapiens) (UniProt P42679); experiment: Inhibition of MATK at 10 uM
[32] = target: Mitogen-activated protein kinase 1 (Homo sapiens) (UniProt P28482); experiment: Inhibition of ERK2 at 10 uM
[33] = target: Insulin receptor-related protein (Homo sapiens) (UniProt P14616); experiment: Inhibition of INSRR at 10 uM
[34] = target: Misshapen-like kinase 1 (Homo sapiens) (UniProt Q8N4C8); experiment: Inhibition of MINK1 at 10 uM
[35] = target: Mitogen-activated protein kinase 12 (Homo sapiens) (UniProt P53778); experiment: Inhibition of p38-gamma at 10 uM
[36] = target: Tyrosine-protein kinase Srms (Homo sapiens) (UniProt Q9H3Y6); experiment: Inhibition of SRMS at 10 uM
[37] = target: Leukocyte tyrosine kinase receptor (Homo sapiens) (UniProt P29376); experiment: Inhibition of LTK at 10 uM
[38] = target: Mast/stem cell growth factor receptor Kit (Homo sapiens) (UniProt P10721); experiment: Inhibition of KIT at 10 uM
[39] = target: Fibroblast growth factor receptor 1 (Homo sapiens) (UniProt P11362); experiment: Inhibition of FGFR1 at 10 uM
[40] = target: Testis-specific serine/threonine-protein kinase 1 (Homo sapiens) (UniProt Q9BXA7); experiment: Inhibition of TSSK1 at 10 uM
[41] = target: Mitogen-activated protein kinase 13 (Homo sapiens) (UniProt O15264); experiment: Inhibition of p38delta at 10 uM
[42] = target: Casein kinase I isoform gamma-1 (Homo sapiens) (UniProt Q9HCP0); experiment: Inhibition of CSNK1G1 at 10 uM
[43] = target: Tyrosine-protein kinase SYK (Homo sapiens) (UniProt P43405); experiment: Inhibition of SYK at 10 uM
[44] = Metabolic stability in rat liver microsomes assessed as compound remaining at 2 uM after 45 mins by LC/MS analysis; type: ADME, Microsome; conditions: read-out: Stability
[45] = system: Proto-oncogene tyrosine-protein kinase receptor Ret (Homo sapiens), P07949 [Y791F]; experiment: Inhibition of RET Y791F (mutant) at 10 uM
[46] = target: Tyrosine-protein kinase Yes (Homo sapiens) (UniProt P07947); experiment: Inhibition of YES1 at 10 uM
[47] = target: Epidermal growth factor receptor (Homo sapiens) (UniProt P00533); experiment: Inhibition of EGFR at 10 uM

Tyrosine-protein kinase Srms (Homo sapiens), sequence (Q9H3Y6 whole entry, looked up): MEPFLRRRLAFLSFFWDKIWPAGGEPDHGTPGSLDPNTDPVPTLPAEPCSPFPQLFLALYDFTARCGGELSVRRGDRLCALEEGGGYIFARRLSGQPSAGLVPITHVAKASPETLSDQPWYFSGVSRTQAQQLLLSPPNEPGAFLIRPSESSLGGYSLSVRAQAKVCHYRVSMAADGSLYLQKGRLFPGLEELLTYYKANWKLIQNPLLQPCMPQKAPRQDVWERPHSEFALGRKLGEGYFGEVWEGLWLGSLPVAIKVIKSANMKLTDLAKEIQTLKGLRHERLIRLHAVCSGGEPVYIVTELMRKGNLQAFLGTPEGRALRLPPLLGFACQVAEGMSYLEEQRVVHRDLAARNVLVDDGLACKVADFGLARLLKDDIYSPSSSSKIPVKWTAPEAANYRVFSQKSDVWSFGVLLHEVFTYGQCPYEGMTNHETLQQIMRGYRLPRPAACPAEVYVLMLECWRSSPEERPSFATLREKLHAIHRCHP
Fibroblast growth factor receptor 1 (Homo sapiens), sequence (P11362 22-822 limits assumed): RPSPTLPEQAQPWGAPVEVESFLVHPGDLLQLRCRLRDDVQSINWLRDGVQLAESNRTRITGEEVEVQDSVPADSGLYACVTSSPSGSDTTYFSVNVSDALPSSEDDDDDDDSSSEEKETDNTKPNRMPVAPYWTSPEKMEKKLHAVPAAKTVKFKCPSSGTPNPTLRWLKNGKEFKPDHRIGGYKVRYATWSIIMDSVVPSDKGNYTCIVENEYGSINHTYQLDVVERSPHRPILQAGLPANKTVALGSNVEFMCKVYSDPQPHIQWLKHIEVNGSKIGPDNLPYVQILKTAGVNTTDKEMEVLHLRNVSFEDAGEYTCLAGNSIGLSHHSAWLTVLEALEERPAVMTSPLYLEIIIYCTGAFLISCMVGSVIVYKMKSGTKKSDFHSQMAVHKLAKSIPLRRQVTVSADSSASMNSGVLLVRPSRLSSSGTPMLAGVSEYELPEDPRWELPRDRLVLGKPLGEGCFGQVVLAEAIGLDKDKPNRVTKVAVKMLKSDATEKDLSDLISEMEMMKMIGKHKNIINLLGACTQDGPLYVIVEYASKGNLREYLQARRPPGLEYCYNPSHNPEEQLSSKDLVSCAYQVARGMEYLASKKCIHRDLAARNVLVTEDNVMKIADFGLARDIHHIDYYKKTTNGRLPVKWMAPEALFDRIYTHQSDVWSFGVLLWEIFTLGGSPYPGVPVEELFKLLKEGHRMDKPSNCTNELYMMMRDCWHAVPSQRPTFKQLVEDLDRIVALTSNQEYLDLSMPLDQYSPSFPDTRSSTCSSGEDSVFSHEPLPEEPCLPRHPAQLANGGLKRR
Megakaryocyte-associated tyrosine-protein kinase (Homo sapiens), sequence (P42679 whole entry): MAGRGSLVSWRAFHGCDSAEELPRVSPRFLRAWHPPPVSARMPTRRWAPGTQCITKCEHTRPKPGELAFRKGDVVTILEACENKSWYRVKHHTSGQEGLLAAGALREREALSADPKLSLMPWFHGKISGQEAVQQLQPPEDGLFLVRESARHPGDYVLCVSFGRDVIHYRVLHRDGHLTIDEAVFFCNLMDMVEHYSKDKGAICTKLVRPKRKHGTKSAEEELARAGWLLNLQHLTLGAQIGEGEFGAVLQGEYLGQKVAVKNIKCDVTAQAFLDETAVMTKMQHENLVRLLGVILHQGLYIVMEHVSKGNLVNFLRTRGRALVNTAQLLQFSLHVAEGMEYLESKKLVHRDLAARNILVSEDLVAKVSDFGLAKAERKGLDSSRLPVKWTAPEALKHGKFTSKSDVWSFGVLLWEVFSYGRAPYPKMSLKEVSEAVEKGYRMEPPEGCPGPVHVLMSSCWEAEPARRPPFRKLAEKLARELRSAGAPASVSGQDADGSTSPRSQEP
Serine/threonine-protein kinase Sgk3 (Homo sapiens), sequence (Q96BR1 whole entry): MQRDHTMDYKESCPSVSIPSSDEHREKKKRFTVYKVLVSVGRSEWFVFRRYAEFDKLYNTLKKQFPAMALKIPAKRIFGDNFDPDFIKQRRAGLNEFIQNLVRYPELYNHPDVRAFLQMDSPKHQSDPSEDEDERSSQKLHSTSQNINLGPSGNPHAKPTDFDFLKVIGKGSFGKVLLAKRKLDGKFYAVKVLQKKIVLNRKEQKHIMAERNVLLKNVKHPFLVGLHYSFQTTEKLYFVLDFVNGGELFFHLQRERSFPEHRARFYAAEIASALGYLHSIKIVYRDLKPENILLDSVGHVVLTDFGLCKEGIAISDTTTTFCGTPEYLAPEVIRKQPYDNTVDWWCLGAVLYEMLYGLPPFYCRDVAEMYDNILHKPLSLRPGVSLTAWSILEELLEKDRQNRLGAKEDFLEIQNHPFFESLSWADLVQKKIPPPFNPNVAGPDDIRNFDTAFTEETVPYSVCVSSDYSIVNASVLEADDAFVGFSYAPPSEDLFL
Misshapen-like kinase 1 (Homo sapiens), sequence (Q8N4C8 whole entry, looked up): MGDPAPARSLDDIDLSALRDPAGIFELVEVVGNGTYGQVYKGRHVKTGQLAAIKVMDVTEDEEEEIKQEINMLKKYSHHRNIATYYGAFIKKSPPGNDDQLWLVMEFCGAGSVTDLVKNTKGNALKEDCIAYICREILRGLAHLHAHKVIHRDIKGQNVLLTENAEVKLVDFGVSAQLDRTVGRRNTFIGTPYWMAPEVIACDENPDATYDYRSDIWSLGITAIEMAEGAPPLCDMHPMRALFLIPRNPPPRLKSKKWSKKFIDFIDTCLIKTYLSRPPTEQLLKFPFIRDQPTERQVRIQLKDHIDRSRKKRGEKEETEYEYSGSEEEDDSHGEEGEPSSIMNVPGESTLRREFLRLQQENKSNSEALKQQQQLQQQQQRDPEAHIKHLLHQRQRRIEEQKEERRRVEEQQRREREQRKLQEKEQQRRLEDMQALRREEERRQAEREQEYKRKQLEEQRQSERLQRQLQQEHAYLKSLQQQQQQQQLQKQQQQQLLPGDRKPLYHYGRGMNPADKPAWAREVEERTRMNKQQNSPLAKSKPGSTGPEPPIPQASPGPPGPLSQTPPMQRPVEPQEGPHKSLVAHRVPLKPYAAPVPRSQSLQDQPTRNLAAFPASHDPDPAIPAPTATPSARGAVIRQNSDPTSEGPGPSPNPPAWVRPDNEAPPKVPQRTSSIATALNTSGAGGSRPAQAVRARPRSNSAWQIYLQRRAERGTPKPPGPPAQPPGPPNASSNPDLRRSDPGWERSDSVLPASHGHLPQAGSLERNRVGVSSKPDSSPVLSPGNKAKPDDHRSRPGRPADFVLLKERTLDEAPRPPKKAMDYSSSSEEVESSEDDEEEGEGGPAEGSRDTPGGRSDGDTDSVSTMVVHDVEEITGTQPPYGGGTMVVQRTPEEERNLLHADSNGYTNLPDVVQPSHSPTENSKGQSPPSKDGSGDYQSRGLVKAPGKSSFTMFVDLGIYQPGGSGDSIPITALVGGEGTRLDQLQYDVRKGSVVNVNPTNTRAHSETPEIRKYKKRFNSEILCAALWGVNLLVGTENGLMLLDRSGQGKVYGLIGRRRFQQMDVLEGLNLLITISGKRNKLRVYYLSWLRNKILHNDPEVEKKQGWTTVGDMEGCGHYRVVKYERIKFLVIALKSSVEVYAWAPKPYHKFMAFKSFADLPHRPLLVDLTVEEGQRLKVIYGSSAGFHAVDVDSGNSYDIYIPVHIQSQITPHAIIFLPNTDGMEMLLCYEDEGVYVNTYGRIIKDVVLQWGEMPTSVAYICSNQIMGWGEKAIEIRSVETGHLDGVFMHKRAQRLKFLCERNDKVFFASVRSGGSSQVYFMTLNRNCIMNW
Tyrosine-protein kinase receptor TYRO3 (Homo sapiens), sequence (Q06418 whole entry): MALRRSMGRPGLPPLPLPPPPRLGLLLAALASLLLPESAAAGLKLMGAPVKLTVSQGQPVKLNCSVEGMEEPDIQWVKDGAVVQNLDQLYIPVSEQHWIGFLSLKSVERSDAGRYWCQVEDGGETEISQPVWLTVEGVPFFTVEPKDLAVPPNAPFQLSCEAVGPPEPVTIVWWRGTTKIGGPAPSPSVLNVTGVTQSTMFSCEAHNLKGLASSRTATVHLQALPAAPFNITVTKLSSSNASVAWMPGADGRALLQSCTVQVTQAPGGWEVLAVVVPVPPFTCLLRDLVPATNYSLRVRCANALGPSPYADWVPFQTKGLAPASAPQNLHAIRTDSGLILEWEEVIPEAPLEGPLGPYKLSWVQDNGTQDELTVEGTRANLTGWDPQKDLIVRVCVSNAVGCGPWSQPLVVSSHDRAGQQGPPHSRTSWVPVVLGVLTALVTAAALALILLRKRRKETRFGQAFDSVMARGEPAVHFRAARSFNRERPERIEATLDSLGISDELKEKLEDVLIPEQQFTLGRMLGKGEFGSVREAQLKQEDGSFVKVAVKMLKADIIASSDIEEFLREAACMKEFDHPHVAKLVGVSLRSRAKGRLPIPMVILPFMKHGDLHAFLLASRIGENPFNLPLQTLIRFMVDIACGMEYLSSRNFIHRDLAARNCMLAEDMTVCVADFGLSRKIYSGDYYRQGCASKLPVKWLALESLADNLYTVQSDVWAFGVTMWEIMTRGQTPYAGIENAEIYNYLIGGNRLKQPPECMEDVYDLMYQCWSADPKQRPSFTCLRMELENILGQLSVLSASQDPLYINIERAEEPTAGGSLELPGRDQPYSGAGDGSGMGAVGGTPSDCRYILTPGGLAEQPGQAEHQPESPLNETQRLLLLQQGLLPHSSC
Casein kinase I isoform gamma-1 (Homo sapiens), sequence (Q9HCP0 whole entry, looked up, canonical isoform): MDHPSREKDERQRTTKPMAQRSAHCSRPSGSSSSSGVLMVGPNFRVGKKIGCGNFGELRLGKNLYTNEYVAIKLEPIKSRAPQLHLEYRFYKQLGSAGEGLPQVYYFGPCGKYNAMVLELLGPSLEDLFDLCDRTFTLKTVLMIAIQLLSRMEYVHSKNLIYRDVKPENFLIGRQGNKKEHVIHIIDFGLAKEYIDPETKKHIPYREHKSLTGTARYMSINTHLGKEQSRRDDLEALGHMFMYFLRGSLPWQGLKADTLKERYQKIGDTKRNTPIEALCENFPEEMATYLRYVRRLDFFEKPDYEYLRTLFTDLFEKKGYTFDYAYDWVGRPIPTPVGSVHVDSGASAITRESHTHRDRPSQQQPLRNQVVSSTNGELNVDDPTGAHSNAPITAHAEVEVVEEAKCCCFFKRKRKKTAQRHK

inhibition [1]: < 50%
inhibition [2]: < 50%
inhibition [3]: < 50%
inhibition [4]: < 50%
inhibition [5]: < 50%
inhibition [6]: < 50%
inhibition [7]: < 50%
inhibition [8]: < 50%
inhibition [9]: < 50%
inhibition [10]: < 50%
inhibition [11]: < 50%
inhibition [12]: < 50%
inhibition [13]: < 50%
inhibition [14]: < 50%
inhibition [15]: < 50%
inhibition [16]: < 50%
inhibition [17]: < 50%
inhibition [18]: < 50%
inhibition [19]: < 50%
inhibition [20]: < 50%
inhibition [21]: < 50%
inhibition [22]: < 50%
inhibition [23]: < 50%
inhibition [24]: < 50%
inhibition [25]: < 50%
inhibition [26]: < 50%
inhibition [27]: < 50%
inhibition [28]: < 50%
inhibition [29]: < 50%
inhibition [30]: < 50%
inhibition [31]: < 50%
inhibition [32]: < 50%
inhibition [33]: < 50%
inhibition [34]: < 50%
inhibition [35]: < 50%
inhibition [36]: < 50%
inhibition [37]: < 50%
inhibition [38]: < 50%
inhibition [39]: < 50%
inhibition [40]: < 50%
inhibition [41]: < 50%
inhibition [42]: < 50%
inhibition [43]: < 50%
remaining at 0.75 h, 2 µM [44]: 53%
inhibition [45]: < 50%
inhibition [46]: < 50%
inhibition [47]: < 50%
Compound: Cc1cc(OCc2ccc(F)cc2F)c(Br)c(=O)n1Cc1ccc(CN(C)C)cc1
